The record followed here is ChEMBL document CHEMBL1201862, “PubChem BioAssay data set” (2004).

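The compound was tested at five concentrations on cells cultured in 96-well plates, with a 48-hour exposure period. Here, GI50 denotes the concentration required for 50% inhibition of growth.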 The source made the active and inactive calls. Cut-off read from the data, not from the text of the source: active = GI50 up to about 1.1 µM and inactive = higher. Some results are limits rather than exact numbers.

Among the test systems are CAKI-1; COLO 205; HCT-15; HOP-62; KM12; NCI-H23; OVCAR-3; OVCAR-4; OVCAR-8; RPMI-8226; RXF 393; SF-295; SF-539; SNB-75; U-251; UACC-62; EKVX; 786-0; ACHN.
Assay in all cases: NCI anticancer screen, dose series, 48 h

Regarding `O=NN(CCF)C(=O)NC1CCSCC1`, the GI50 in the test on CAKI-1 was > 100 µM (inactive); with COLO 205 it was > 100 µM (inactive); in the test with HCT-15, above 100 µM; in the test with HOP-62, 1 µM (active); in the test on KM12, > 100 µM (inactive); with NCI-H23 it was > 100 µM (inactive). In addition, the GI50 with OVCAR-3, in the test on OVCAR-4, with OVCAR-8, in the test with RPMI-8226, in the test on RXF 393 and in the test with SF-295 was > 100 µM (inactive) each time. Moreover, the GI50 in the test with SF-539, with SNB-75, with U-251 and with UACC-62 was > 100 µM (inactive) each time.
For the compound `CCCCSCC(NC(=O)/C=C/c1c(C)[nH]c(=O)[nH]c1=O)C(=O)OC` (stereo not drawn), the GI50 in the test on CAKI-1 was 32.3 µM (inactive); with COLO 205 it was 36.5 µM (inactive); in the test on EKVX, 34.2 µM (inactive); with HCT-15 it was 148 µM; in the test on HOP-62 it was 70.5 µM (inactive); with KM12 it was 24.9 µM (inactive). The GI50 in the test with NCI-H23 is 90.8 µM (inactive); in the test on OVCAR-3 it was 13.2 µM (inactive); in the test on OVCAR-4, 13.8 µM (inactive); with OVCAR-8 it was 37.9 µM (inactive); in the test with RPMI-8226, 104 µM (inactive); in the test on RXF 393, 56.5 µM (inactive). For the same compound, the GI50 in the test on SF-295 was 101 µM (inactive); in the test on SF-539 it was 61.2 µM (inactive); in the test with SNB-75, 55.5 µM (inactive); in the test with U-251 it was 16.6 µM (inactive); with UACC-62 it was 51.9 µM (inactive).
On to `CCN(CC)CC(C)(C)C(=O)/C=C/c1ccc(C)cc1`, for which the GI50 in the test with 786-0 was 10.7 µM (inactive); with ACHN, 14.6 µM (inactive); in the test with CAKI-1, 12.6 µM (inactive); with EKVX it was 4.88 µM (inactive); in the test on HCT-15, 3.61 µM; in the test with HOP-62 it was 18.5 µM (inactive). For the same compound, the GI50 in the test on KM12 is 5.87 µM (inactive); with NCI-H23 it was > 10 µM (inactive); in the test on OVCAR-3, 9.14 µM (inactive); in the test on OVCAR-4 it was 11.6 µM (inactive); with OVCAR-8, 11.8 µM (inactive); with RXF 393 it was 9.62 µM (inactive). The GI50 with SF-295 is 13.2 µM (inactive); in the test on SF-539 it was 13.3 µM (inactive); in the test on SNB-75, 6.98 µM (inactive); in the test with U-251, 15.3 µM (inactive); with UACC-62, 13.6 µM (inactive).
As for `CCOC(=O)C1=C(Nc2ccccc2)OC/C1=N\NC(=O)Cc1ccccc1`, the GI50 in the test on 786-0, in the test with CAKI-1, in the test with COLO 205, in the test with EKVX, with HOP-62 and in the test on KM12 was > 50 µM (inactive) in each case. In addition, the GI50 in the test with NCI-H23, in the test with OVCAR-3, in the test on OVCAR-4, in the test with OVCAR-8, in the test on RPMI-8226 and in the test on RXF 393 was > 50 µM (inactive) each time. In addition, the GI50 in the test with SF-295 is > 50 µM (inactive); in the test on SF-539, > 50 µM (inactive); with SNB-75, 31.4 µM (inactive); with U-251 it was > 50 µM (inactive); in the test on UACC-62 it was > 50 µM (inactive).
Regarding `COC(=O)/C(C#N)=C1\CCC(O)N1C` (stereo not drawn), the GI50 with 786-0, in the test on ACHN, with CAKI-1, with EKVX, in the test on HOP-62 and in the test on KM12 was > 100 µM (inactive) in each case. For the same compound, the GI50 in the test on NCI-H23, in the test on OVCAR-3, with OVCAR-4, in the test on OVCAR-8, in the test with RPMI-8226 and in the test on RXF 393 was > 100 µM (inactive) throughout. The GI50 in the test on SF-295, with SF-539, in the test with SNB-75, in the test on U-251 and in the test on UACC-62 was > 100 µM (inactive) in each case.
On to `CC1(C)CC23C4COC(=O)C2CCC1C3CC4=O` (stereo not drawn), for which the GI50 is 5.47 µM (inactive) with CAKI-1; 15.6 µM (inactive) with COLO 205; 26.7 µM (inactive) with EKVX; 6.52 µM in the test with HCT-15; 24.4 µM (inactive) in the test on HOP-62; 12.6 µM (inactive) with KM12. The GI50 is 3.27 µM (inactive) in the test with NCI-H23; 12.5 µM (inactive) in the test on OVCAR-3; 15.2 µM (inactive) with OVCAR-4; 10 µM (inactive) with OVCAR-8; 5.28 µM (inactive) with RPMI-8226; 1.71 µM (inactive) with RXF 393. The GI50 with SF-295 is 19.8 µM (inactive); in the test on SF-539, 19.5 µM (inactive); in the test with SNB-75 it was 19.8 µM (inactive); with U-251, 20.7 µM (inactive); in the test with UACC-62 it was 10.5 µM (inactive).
Regarding `Cc1ccccc1NC(=O)C(=O)C1CN(c2ccccc2)N=C1N` (stereo not drawn), the GI50 in the test with 786-0, with CAKI-1, in the test on EKVX, in the test with HOP-62, with NCI-H23 and in the test on OVCAR-3 was > 100 µM (inactive) throughout. Also, the GI50 in the test with OVCAR-4 is > 100 µM (inactive); in the test on OVCAR-8 it was > 100 µM (inactive); in the test on RXF 393, > 100 µM (inactive); in the test with SF-539, > 100 µM (inactive); with SNB-75, 86.5 µM (inactive); in the test with U-251, > 100 µM (inactive).
With `CC1Cc2c(N)nc(N3CCOCC3)nc2NC1=O` (stereo not drawn), the GI50 in the test on 786-0 is > 100 µM (inactive); in the test on ACHN, > 100 µM (inactive); in the test on COLO 205, > 100 µM (inactive); with EKVX, > 100 µM (inactive); with HCT-15, above 100 µM; with HOP-62, > 100 µM (inactive). In addition, the GI50 in the test on KM12, with NCI-H23, with OVCAR-3, in the test with OVCAR-8, with RPMI-8226 and with RXF 393 was > 100 µM (inactive) each time. For the same compound, the GI50 is > 100 µM (inactive) in the test on SF-295; > 100 µM (inactive) in the test on SF-539; 5.53 µM (inactive) with SNB-75; > 100 µM (inactive) with U-251; > 100 µM (inactive) in the test on UACC-62.
Consider `CC(C)(C)C1=NO[C@H]2[C@@H](NC(=O)c3ccccc3)CC[C@@H]12`, for which the GI50 in the test with 786-0 is > 100 µM (inactive); in the test with ACHN it was > 100 µM (inactive); in the test on CAKI-1 it was > 100 µM (inactive); with COLO 205, > 100 µM (inactive); in the test on HCT-15, above 100 µM; in the test on HOP-62, > 100 µM (inactive). Moreover, the GI50 in the test with KM12, in the test with NCI-H23, with OVCAR-3, in the test on OVCAR-4, in the test with OVCAR-8 and in the test on RPMI-8226 was > 100 µM (inactive) throughout. Further, the GI50 in the test on RXF 393 was > 100 µM (inactive); in the test on SF-295, > 100 µM (inactive); in the test on SF-539 it was > 100 µM (inactive); in the test with SNB-75, 38.3 µM (inactive); in the test on U-251, > 100 µM (inactive); in the test with UACC-62, > 100 µM (inactive).
